The record followed here is patent publication US20110172147A1, “NEUROPEPTIDE-2 RECEPTOR (Y-2R) AGONISTS” (priority 2009, published 2011).

SMILES strings stand for the structures.

What all share (type): cell-based
One experiment addresses T1, Y5R (Homo sapiens, UniProt Q15761).
T1 sequence (Q15761 1-445): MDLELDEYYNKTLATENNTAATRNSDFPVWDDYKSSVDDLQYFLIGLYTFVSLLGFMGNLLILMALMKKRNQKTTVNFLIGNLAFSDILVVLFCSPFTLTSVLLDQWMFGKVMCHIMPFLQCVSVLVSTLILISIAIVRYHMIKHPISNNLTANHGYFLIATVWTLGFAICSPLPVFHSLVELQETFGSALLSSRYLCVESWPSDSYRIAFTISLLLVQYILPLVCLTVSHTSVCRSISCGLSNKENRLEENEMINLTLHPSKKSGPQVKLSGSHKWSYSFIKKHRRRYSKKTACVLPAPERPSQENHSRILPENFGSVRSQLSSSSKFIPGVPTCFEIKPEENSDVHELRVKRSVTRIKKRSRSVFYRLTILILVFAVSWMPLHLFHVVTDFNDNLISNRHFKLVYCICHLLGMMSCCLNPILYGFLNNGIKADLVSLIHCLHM
The experiment can be described thus: CaFlux Assay (FLIPR), Y5R.

For another experiment, the target named is Y4R (Homo sapiens, UniProt P50391). The experiment can be described thus: CaFlux Assay (FLIPR), Y4R.
Sequence of Y4R (P50391 whole entry): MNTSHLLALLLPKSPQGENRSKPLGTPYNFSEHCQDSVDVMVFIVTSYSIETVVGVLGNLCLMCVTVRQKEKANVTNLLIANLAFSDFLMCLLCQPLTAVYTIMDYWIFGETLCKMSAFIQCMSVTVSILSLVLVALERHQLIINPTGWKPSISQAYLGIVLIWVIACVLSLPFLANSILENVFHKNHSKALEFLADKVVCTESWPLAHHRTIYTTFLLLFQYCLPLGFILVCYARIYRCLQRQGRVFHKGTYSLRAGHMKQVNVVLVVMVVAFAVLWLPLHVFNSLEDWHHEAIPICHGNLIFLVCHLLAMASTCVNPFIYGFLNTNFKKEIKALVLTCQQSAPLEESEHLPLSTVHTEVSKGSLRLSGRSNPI
The target of the next experiment is T2, Y1R (Homo sapiens, UniProt P25929).
T2 sequence (P25929 1-384): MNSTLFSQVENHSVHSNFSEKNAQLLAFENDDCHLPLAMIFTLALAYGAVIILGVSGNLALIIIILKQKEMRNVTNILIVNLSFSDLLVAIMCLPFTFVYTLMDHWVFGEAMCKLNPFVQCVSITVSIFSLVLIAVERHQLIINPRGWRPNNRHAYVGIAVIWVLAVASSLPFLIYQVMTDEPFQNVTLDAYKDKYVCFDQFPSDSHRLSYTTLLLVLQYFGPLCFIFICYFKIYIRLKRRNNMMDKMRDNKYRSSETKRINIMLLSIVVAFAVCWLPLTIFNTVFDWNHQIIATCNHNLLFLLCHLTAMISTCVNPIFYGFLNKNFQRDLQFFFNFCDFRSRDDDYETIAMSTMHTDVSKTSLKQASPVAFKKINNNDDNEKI
The experiment can be described thus: CaFlux Assay (FLIPR), Y1R.

Experiment [1] deals with T3, hNPY2R (Homo sapiens, UniProt P49146).
T3 sequence (P49146 1-381): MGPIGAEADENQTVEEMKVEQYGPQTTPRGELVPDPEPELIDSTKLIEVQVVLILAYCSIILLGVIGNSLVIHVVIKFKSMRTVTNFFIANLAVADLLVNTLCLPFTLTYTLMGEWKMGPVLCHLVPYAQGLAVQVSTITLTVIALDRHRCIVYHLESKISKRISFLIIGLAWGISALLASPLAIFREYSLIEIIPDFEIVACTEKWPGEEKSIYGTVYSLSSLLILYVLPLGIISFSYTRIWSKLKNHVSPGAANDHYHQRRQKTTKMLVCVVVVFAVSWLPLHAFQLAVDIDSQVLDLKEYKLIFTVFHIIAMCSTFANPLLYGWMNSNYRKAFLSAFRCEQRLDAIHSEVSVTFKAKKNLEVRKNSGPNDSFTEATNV
The experiment can be described thus: CaFlux Assay (FLIPR), Y2R. On the set-up: expressed in transfected cells; host or cells: HEK-293 stably transfected with G protein chimera Gαqi9. The essentials: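 Stable HEK-293/Gαqi9 clones expressing receptor, pre-loaded 1 h at 37 °C with calcium dye containing 5 mM probenecid. Test compound in HBSS with 0.05% BSA and 1% DMSO added on FLIPR; baseline-corrected peak fluorescence taken as % of positive-control maximum.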

The target in experiment [2] is T3, hNPY2R. The experiment can be described thus: cAMP Agonist Assay, HEK293/hNPY2R. More on the design: expressed in transfected cells; host or cells: HEK293/hNPY2R (G418 selection). The essentials:
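Intracellular cAMP quantified by luminescent competitive ELISA after a 30 min room-temperature treatment of overnight-plated HEK293/hNPY2R cells with compound in medium containing 5 μM forskolin, 0.5 mM IBMX and 1.1% DMSO; four replicates per concentration.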

`CC[C@H](C)[C@H](NC(=O)CCCCCNC(=O)CCOCCOCCOCCOCCOCCOCCOCCOCCOCCOCCOCCOCCOCCOCCOCCOC)C(=O)N[C@@H](CCCCN)C(=O)N1CCN(c2ccc3ncn(CC(=O)N[C@@H](CCCNC(=N)N)C(=O)N[C@@H](Cc4c[nH]cn4)C(=O)N[C@@H](Cc4ccc(O)cc4)C(=O)N[C@@H](CC(C)C)C(=O)N[C@@H](CC(N)=O)C(=O)N[C@@H](Cc4c[nH]c5ccccc45)C(=O)N[C@H](C(=O)N[C@H](C(=O)N[C@@H](CCCNC(=N)N)C(=O)N[C@@H](CCC(N)=O)C(=O)N(C)[C@@H](CCCNC(=N)N)C(=O)N[C@@H](Cc4ccc(O)cc4)C(N)=O)[C@@H](C)O)C(C)C)c(=O)c3c2)CC1` [Example 19]: the half-maximal effective concentration (EC50) was greater than 6000 nM at Y5R; greater than 6000 nM at Y4R; greater than 6000 nM on Y1R; 0.424 nM on hNPY2R [1]; 0.26 nM on hNPY2R [2].

`CC[C@H](C)[C@H](NC(=O)CCCCCNC(=O)CCOCCOCCOCCOCCOCCOCCOCCOCCOCCOCCOCCOCCOCCOCCOCCOCCOCCOCCOCCOCCOCCOCCOCCOC)C(=O)N[C@@H](CCCCN)C(=O)N1CCN(c2ccc3ncn(CC(=O)N[C@@H](CCCNC(=N)N)C(=O)N[C@@H](Cc4c[nH]cn4)C(=O)N[C@@H](Cc4ccc(O)cc4)C(=O)N[C@@H](CC(C)C)C(=O)N[C@@H](CC(N)=O)C(=O)N[C@@H](Cc4c[nH]c5ccccc45)C(=O)N[C@H](C(=O)N[C@H](C(=O)N[C@@H](CCCNC(=N)N)C(=O)N[C@@H](CCC(N)=O)C(=O)N(C)[C@@H](CCCNC(=N)N)C(=O)N[C@@H](Cc4ccc(O)cc4)C(N)=O)[C@@H](C)O)C(C)C)c(=O)c3c2)CC1` [Example 20]: the 50% effective concentration (EC50) is greater than 6000 nM at Y5R; greater than 6000 nM on Y4R; greater than 6000 nM at Y1R; 0.488 nM at hNPY2R [1]; 0.89 nM at hNPY2R [2].

Regarding `CCCCCCCCCCCCCCCCCCCC(=O)N[C@@H](CCC(=O)N[C@@H](CCC(=O)NCCCC[C@H](NC(=O)[C@@H](NC(=O)COCCOCCOC)[C@@H](C)CC)C(=O)N1CCN(c2ccc3ncn(CC(=O)N[C@@H](CCCNC(=N)N)C(=O)N[C@@H](Cc4c[nH]cn4)C(=O)N[C@@H](Cc4ccc(O)cc4)C(=O)N[C@@H](CC(C)C)C(=O)N[C@@H](CC(N)=O)C(=O)N[C@@H](Cc4c[nH]c5ccccc45)C(=O)N[C@H](C(=O)N[C@H](C(=O)N[C@@H](CCCNC(=N)N)C(=O)N[C@@H](CCC(N)=O)C(=O)N(C)[C@@H](CCCNC(=N)N)C(=O)N[C@@H](Cc4ccc(O)cc4)C(N)=O)[C@@H](C)O)C(C)C)c(=O)c3c2)CC1)C(=O)O)C(=O)O` [Example 22], the EC50 at Y5R was 1510 nM; on Y4R, greater than 6000 nM; at Y1R it was greater than 6000 nM; on hNPY2R [1], 0.298 nM; at hNPY2R [2], 0.065 nM.

As for `CCCCCCCCCCCCCCCCCCCC(=O)N[C@@H](CCC(=O)N[C@@H](CCC(=O)NCCCC[C@H](NC(=O)[C@@H](NC(=O)CCOCCOCCOCCOCCOCCOCCOCCOC)[C@@H](C)CC)C(=O)N1CCN(c2ccc3ncn(CC(=O)N[C@@H](CCCNC(=N)N)C(=O)N[C@@H](Cc4c[nH]cn4)C(=O)N[C@@H](Cc4ccc(O)cc4)C(=O)N[C@@H](CC(C)C)C(=O)N[C@@H](CC(N)=O)C(=O)N[C@@H](Cc4c[nH]c5ccccc45)C(=O)N[C@H](C(=O)N[C@H](C(=O)N[C@@H](CCCNC(=N)N)C(=O)N[C@@H](CCC(N)=O)C(=O)N(C)[C@@H](CCCNC(=N)N)C(=O)N[C@@H](Cc4ccc(O)cc4)C(N)=O)[C@@H](C)O)C(C)C)c(=O)c3c2)CC1)C(=O)O)C(=O)O` [Example 23], the 50% effective concentration (EC50) at Y5R is 2210 nM; on Y4R, greater than 9000 nM; on Y1R it was greater than 9000 nM; at hNPY2R [1], 0.295 nM; at hNPY2R [2], 0.05 nM.

Consider `CCCCCCCCCCCCCCCCCCCC(=O)N[C@@H](CCC(=O)N[C@@H](CCC(=O)NCCCC[C@H](NC(=O)[C@@H](NC(=O)CCOCCOCCOCCOCCOCCOCCOCCOCCOCCOCCOCCOCCOCCOCCOCCOC)[C@@H](C)CC)C(=O)N1CCN(c2ccc3ncn(CC(=O)N[C@@H](CCCNC(=N)N)C(=O)N[C@@H](Cc4c[nH]cn4)C(=O)N[C@@H](Cc4ccc(O)cc4)C(=O)N[C@@H](CC(C)C)C(=O)N[C@@H](CC(N)=O)C(=O)N[C@@H](Cc4c[nH]c5ccccc45)C(=O)N[C@H](C(=O)N[C@H](C(=O)N[C@@H](CCCNC(=N)N)C(=O)N[C@@H](CCC(N)=O)C(=O)N(C)[C@@H](CCCNC(=N)N)C(=O)N[C@@H](Cc4ccc(O)cc4)C(N)=O)[C@@H](C)O)C(C)C)c(=O)c3c2)CC1)C(=O)O)C(=O)O` [Example 25], for which the concentration for a half-maximal effect (EC50) on Y5R was 2580 nM; on Y4R, greater than 9000 nM; on Y1R, greater than 9000 nM; at hNPY2R [1] it was 0.14 nM; at hNPY2R [2] it was 0.09 nM. Also, the “Y5R FLIPR agonist character (partial agonist mark)” value on Y5R is reported as “P.A”.

Turning to `CCCCCCCCCCCCCCCCCCCC(=O)N[C@@H](CCC(=O)N[C@@H](CCC(=O)NCCCC[C@H](NC(=O)[C@@H](NC(=O)CCOCCOCCOCCOCCOCCOCCOCCOCCOCCOCCOCCOCCOCCOCCOCCOCCOCCOCCOCCOCCOCCOCCOCCOC)[C@@H](C)CC)C(=O)N1CCN(c2ccc3ncn(CC(=O)N[C@@H](CCCNC(=N)N)C(=O)N[C@@H](Cc4c[nH]cn4)C(=O)N[C@@H](Cc4ccc(O)cc4)C(=O)N[C@@H](CC(C)C)C(=O)N[C@@H](CC(N)=O)C(=O)N[C@@H](Cc4c[nH]c5ccccc45)C(=O)N[C@H](C(=O)N[C@H](C(=O)N[C@@H](CCCNC(=N)N)C(=O)N[C@@H](CCC(N)=O)C(=O)N(C)[C@@H](CCCNC(=N)N)C(=O)N[C@@H](Cc4ccc(O)cc4)C(N)=O)[C@@H](C)O)C(C)C)c(=O)c3c2)CC1)C(=O)O)C(=O)O` [Example 26], the EC50 on Y5R was 1920 nM; at Y4R it was greater than 9000 nM; at Y1R it was greater than 9000 nM; at hNPY2R [1] it was 0.01 nM; at hNPY2R [2], 0.1 nM. For the same compound, at Y5R, the “Y5R FLIPR agonist character (partial agonist mark)” value is given as “P.A”.

On to `CCCCCCCCCCCCCCCC(=O)NCCCCCC(=O)N[C@H](C(=O)N[C@@H](CCCCNC(=O)CCOCCOCCOCCOCCOCCOCCOCCOC)C(=O)N1CCN(c2ccc3ncn(CC(=O)N[C@@H](CCCNC(N)=O)C(=O)N[C@@H](Cc4c[nH]cn4)C(=O)N[C@@H](Cc4ccc(O)cc4)C(=O)N[C@@H](CC(C)C)C(=O)N[C@@H](CC(N)=O)C(=O)N[C@@H](Cc4c[nH]c5ccccc45)C(=O)N[C@H](C(=O)N[C@H](C(=O)N[C@@H](CCCNC(=N)N)C(=O)N[C@@H](CCC(N)=O)C(=O)N(C)[C@@H](CCCNC(=N)N)C(=O)N[C@@H](Cc4ccc(O)cc4)C(N)=O)[C@@H](C)O)C(C)C)c(=O)c3c2)CC1)[C@@H](C)CC` [Example 30], for which the EC50 on Y5R is 5690 nM; on Y4R, greater than 6000 nM; at Y1R, greater than 6000 nM; on hNPY2R [1], 0.143 nM; at hNPY2R [2], 0.47 nM.

As for `CCCCCCCCCCCCCCCC(=O)NCCCCCC(=O)N[C@H](C(=O)N[C@@H](CCCCNC(=O)CCOCCOCCOCCOCCOCCOCCOCCOCCOCCOCCOCCOC)C(=O)N1CCN(c2ccc3ncn(CC(=O)N[C@@H](CCCNC(N)=O)C(=O)N[C@@H](Cc4c[nH]cn4)C(=O)N[C@@H](Cc4ccc(O)cc4)C(=O)N[C@@H](CC(C)C)C(=O)N[C@@H](CC(N)=O)C(=O)N[C@@H](Cc4c[nH]c5ccccc45)C(=O)N[C@H](C(=O)N[C@H](C(=O)N[C@@H](CCCNC(=N)N)C(=O)N[C@@H](CCC(N)=O)C(=O)N(C)[C@@H](CCCNC(=N)N)C(=O)N[C@@H](Cc4ccc(O)cc4)C(N)=O)[C@@H](C)O)C(C)C)c(=O)c3c2)CC1)[C@@H](C)CC` [Example 31], the EC50 on Y5R was 3510 nM; at Y4R it was greater than 6000 nM; at Y1R, greater than 6000 nM; at hNPY2R [1], 0.111 nM; on hNPY2R [2], 0.37 nM.
